Results published in paper PMC4274664, “Arabidopsis cytosolic acyl-CoA-binding proteins ACBP4, ACBP5 and ACBP6 have overlapping but distinct roles in seed development” (Bioscience Reports, 2014).
Where two headings read alike, the source gives them in different places.

What was measured:
rAtACBP6 = molecular target: T1, rAtACBP6 (Arabidopsis thaliana, UniProt P57752); test: ITC of acyl-CoA esters binding to rAtACBP6; conditions: for n: mean of three experiments±S.D., stoichiometry of ligand-to-protein binding; for ΔG: in kcal/mol
T1 construct: made in house; host or cells: Escherichia coli
T1 sequence (P57752 1-92): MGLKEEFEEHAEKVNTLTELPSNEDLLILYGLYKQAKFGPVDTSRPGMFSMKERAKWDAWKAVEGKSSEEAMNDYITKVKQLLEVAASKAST
From the text: (§1) The protein expression plasmids containing full-length AtACBP4 and AtACBP5 cDNA were previously constructed in the vector pRSETB (Invitrogen) as pAT184 and pAT185, respectively. Recombinant (His)6-AtACBP4 and (His)6-AtACBP5 proteins (rAtACBP4 and rAtACBP5) were expressed in Escherichia coli, purified and refolded according to Leung et al.. The coding sequence of AtACBP6 was amplified by PCR with primer pairs ACBP-F1 and ACBP-R1 and cloned into expression vector pEXP5-NT/TOPO (Invitrogen) to generate plasmid pEXP-ACBP6. Sequences of primers are listed in Supplementary Table S1. Recombinant (His)6-AtACBP6 (rAtACBP6) was expressed in E. coli and purified following Chye. The three recombinant proteins were dialysed in 10 mM sodium phosphate buffer (pH 7.0). Protein concentrations were determined by the standard Bradford assay (Bio-Rad).
(§2) Calorimetric titration was performed with a MicroCal iTC200 system (GE Healthcare) at 30°C. Long-chain acyl-CoA esters (Avanti Polar Lipids, Inc.) were dissolved in 10 mM sodium phosphate buffer (pH 7.0) to a final concentration of 0.25, 0.5 and 1 mM. The solution was degassed and loaded into a syringe, while 15 μM rAtACBP6, 6 μM rAtACBP4 or 60 μM rAtACBP5, was placed into the sample cell. For all titrations, 1.8 μl ligand was injected into the sample cell at 150 s intervals with a stirring speed of 1000 rpm. The titrations were completed after 20 injections. All data were collected automatically, and non-specific heat effects were estimated and corrected after saturation following the instructions of the manufacturer. Raw data were integrated and analysed using the Origin v.7.0 software accompanying the calorimeter.

rAtACBP4 = molecular target: T2, rAtACBP4 (Arabidopsis thaliana, UniProt Q9MA55); test: ITC of acyl-CoA esters binding to rAtACBP4; conditions: for n: mean of three experiments±S.D., stoichiometry of ligand-to-protein binding; for ΔG: in kcal/mol
T2 sequence (Q9MA55 1-668): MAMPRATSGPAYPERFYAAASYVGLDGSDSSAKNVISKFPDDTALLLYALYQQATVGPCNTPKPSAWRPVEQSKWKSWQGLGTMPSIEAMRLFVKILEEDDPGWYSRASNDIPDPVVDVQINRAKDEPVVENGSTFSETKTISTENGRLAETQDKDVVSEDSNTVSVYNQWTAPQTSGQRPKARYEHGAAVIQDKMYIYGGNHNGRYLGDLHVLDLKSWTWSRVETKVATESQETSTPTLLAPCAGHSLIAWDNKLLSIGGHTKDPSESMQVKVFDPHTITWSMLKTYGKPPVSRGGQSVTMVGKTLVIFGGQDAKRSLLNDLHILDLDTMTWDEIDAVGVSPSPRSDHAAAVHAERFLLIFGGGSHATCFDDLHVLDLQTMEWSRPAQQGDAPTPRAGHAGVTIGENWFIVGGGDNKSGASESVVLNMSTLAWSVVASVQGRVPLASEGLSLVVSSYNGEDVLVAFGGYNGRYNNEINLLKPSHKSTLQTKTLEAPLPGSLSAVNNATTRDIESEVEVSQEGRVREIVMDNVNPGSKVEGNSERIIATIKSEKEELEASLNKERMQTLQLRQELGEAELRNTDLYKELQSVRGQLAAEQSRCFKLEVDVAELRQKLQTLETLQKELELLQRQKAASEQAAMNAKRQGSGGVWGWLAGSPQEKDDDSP
From the text: as §1, §2

rAtACBP5 = molecular target: T3, rAtACBP5 (Arabidopsis thaliana, UniProt Q8RWD9); test: ITC of acyl-CoA esters binding to rAtACBP5; conditions: for n: mean of three experiments±S.D., stoichiometry of ligand-to-protein binding; for ΔG: in kcal/mol
T3 sequence (Q8RWD9 1-648): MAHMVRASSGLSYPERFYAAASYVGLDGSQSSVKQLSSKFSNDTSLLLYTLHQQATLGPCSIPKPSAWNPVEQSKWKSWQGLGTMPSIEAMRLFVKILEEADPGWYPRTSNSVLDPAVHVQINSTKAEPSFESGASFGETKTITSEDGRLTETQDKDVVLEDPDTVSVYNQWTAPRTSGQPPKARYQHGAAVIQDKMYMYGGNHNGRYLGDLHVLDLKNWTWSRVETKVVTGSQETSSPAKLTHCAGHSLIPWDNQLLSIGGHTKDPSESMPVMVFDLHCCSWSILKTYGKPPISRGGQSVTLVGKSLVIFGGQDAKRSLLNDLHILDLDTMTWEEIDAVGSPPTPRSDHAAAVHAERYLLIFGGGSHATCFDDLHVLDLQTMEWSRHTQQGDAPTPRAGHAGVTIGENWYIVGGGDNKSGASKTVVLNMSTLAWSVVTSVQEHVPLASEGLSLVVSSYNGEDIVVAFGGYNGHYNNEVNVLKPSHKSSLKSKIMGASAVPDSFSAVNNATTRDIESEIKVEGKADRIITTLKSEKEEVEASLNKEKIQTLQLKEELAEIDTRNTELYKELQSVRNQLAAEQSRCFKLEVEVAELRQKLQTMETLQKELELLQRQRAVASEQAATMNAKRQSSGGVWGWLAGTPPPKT
From the text: as §1, §2

10-kDa bovine ACBP = molecular target: 10-kDa bovine ACBP; parameters: method as in PMID 8166635; conditions: read-out: binding affinity; cited from earlier work
yeast ACBP = molecular target: yeast ACBP; parameters: method as in PMID 8093000; conditions: read-out: binding affinity; cited from earlier work
[1] = tested on: Arabidopsis seeds (Col-0 and acbp double/triple mutants); test: Seed germination under ABA treatment; assay type: in vivo; conditions: for seeds germinated / germination rate: 0.2 μM ABA, within 2 days
Protocol: Seeds of wild-type Arabidopsis Col-0 were purchased from the ABRC (Arabidopsis Biological Resource Center). The double and triple mutants of AtACBP4, AtACBP5 and AtACBP6 were generated by crossing the respective single mutants. To sterilize Arabidopsis seeds, a solution containing 20% bleach and 0.1% (v/v) Tween 20 was used. Seeds were subjected to 20 min vigorous shaking in this solution, washed six times in distilled water, and then spread on MS (Murashige and Skoog) medium (Sigma-Aldrich) containing 2% (w/v) sucrose, and 0, 0.2 or 0.4 μM ABA (abscisic acid). After 4°C stratification for 2 days, the plates were placed under 16 h-light/8 h-dark cycles (22°C) in a tissue culture room. The rates of seed germination were scored when radicle protrusion occurred.

[2] = ITC, 30°C, 10 mM sodium phosphate buffer pH 7.0
[3] = ITC, 30°C, 10 mM sodium phosphate buffer pH 7.0, mean of three±S.D.
[4] = ITC, 30°C, 10 mM sodium phosphate buffer pH 7.0, mean of three±S.D., read-out: Kd

Row | Kd (rAtACBP6; [4]) | Kd (rAtACBP4; [4]) | Kd (rAtACBP5; [4]) | SMILES | ΔS (rAtACBP6; [2]) | n (rAtACBP6; [2]) | ΔH (rAtACBP6; [3]) | ΔG (rAtACBP6; [3]) | ΔS (rAtACBP4; [2]) | n (rAtACBP4; [2]) | ΔH (rAtACBP4; [3]) | ΔG (rAtACBP4; [3]) | ΔS (rAtACBP5; [2]) | n (rAtACBP5; [2]) | ΔH (rAtACBP5; [3]) | ΔG (rAtACBP5; [3]) | other results
1 | 60.6 ± 2.4 nM | 2.7 ± 1.6 µM | 35.4 ± 1.4 µM | CCCCCCCCCCCCCCCCCC(=O)SCCNC(=O)CCNC(=O)[C@H](O)C(C)(C)COP(=O)(O)OP(=O)(O)OC[C@H]1O[C@@H](n2cnc3c(N)ncnc32)[C@H](O)[C@@H]1OP(=O)(O)O [18:0] | -6.6 cal/(mol·K) | 1 | -12 ± 2.5 kcal/mol | −10.0±0.3 | -0.6 cal/(mol·K) | 1.1 ± 0.1 | -8.9 ± 1 kcal/mol | −8.7±1.0 | -37.2 cal/(mol·K) | 1 | -17.4 ± 0.1 kcal/mol | −6.2±0.0 | 
2 |  |  |  | CCCCCCCCCCCCCC(=O)SCCNC(=O)CCNC(=O)[C@H](O)C(C)(C)COP(=O)(O)OP(=O)(O)OC[C@H]1O[C@@H](n2cnc3c(N)ncnc32)[C@H](O)[C@@H]1OP(=O)(O)O [14:0] | -4.6 cal/(mol·K) | 1 | -11.6 ± 1.4 kcal/mol | −10.2±0.2 | -158 cal/(mol·K) | 1 | -53.5 ± 6.9 kcal/mol | −5.8±0.1 | 7.7 cal/(mol·K) | 0.9 | -3.7 ± 1.2 kcal/mol | −6.1±0.0 | Kd (rAtACBP6): 38.7 ± 4.5 nM; Kd (rAtACBP4): 65.3 ± 22.6 µM; Kd (rAtACBP5): 41.9 ± 2.2 µM
3 |  |  |  | CC1=CC(=O)CC(C)(C)[C@@]1(O)/C=C/C(C)=C\C(=O)O [ABA, abscisic acid] |  |  |  |  |  |  |  |  |  |  |  |  | seeds germinated ([1]; Col-0 seeds): 60%; seeds germinated ([1]; acbp4acbp5acbp6 seeds): 19%; germination rate ([1]; acbp4acbp5 seeds): 40%; germination rate ([1]; acbp4acbp6 seeds): 32%; germination rate ([1]; acbp5acbp6 seeds): 33%; germination rate in comparison with Col-0 ([1]; all double and triple mutants, 0.4 μM ABA): lower germination rates
4 | 36.4 ± 4.9 nM | 73.8 ± 0.3 µM | 64.1 µM | CCCCC/C=C\C/C=C\CCCCCCCC(=O)SCCNC(=O)CCNC(=O)[C@H](O)C(C)(C)COP(=O)(O)OP(=O)(O)OC[C@H]1O[C@@H](n2cnc3c(N)ncnc32)[C@H](O)[C@@H]1OP(=O)(O)O [18:2, linoleoyl-CoA] | -6.7 cal/(mol·K) | 1.1 | -12.3 ± 1.4 kcal/mol | −10.2±0.2 | -224 cal/(mol·K) | 1 | -73.7 ± 2.6 kcal/mol | −5.8±0.2 | -14.7 cal/(mol·K) | 1 | -10.2 ± 0.2 kcal/mol | −5.8±0.0 | 
5 | 45.3 ± 4.3 nM | 95.2 µM | 74.4 ± 3.5 µM | CCCCCCCC/C=C\CCCCCCCC(=O)SCCNC(=O)CCNC(=O)[C@H](O)C(C)(C)COP(=O)(O)OP(=O)(O)OC[C@H]1O[C@@H](n2cnc3c(N)ncnc32)[C@H](O)[C@@H]1OP(=O)(O)O [18:1, oleoyl-CoA] | 11.4 cal/(mol·K) | 1.9 ± 0.1 | -6.7 ± 3.8 kcal/mol | −10.2±0.1 | -4.3 cal/(mol·K) | 2.1 | -6.9 ± 0.1 kcal/mol | −5.6±0.0 | -1.8 cal/(mol·K) | 0.9 | -6.2 ± 0.2 kcal/mol | −5.7±0.0 | n (stoichiometry of ligand-to-protein binding) (rAtACBP6; ITC): 1.9

Row | SMILES | Kd (rAtACBP6; [4]) | Kd (rAtACBP4; [4]) | Kd (rAtACBP5; [4]) | ΔS (rAtACBP6; [2]) | n (rAtACBP6; [2]) | ΔH (rAtACBP6; [3]) | ΔG (rAtACBP6; [3]) | ΔS (rAtACBP4; [2]) | n (rAtACBP4; [2]) | ΔH (rAtACBP4; [3]) | ΔG (rAtACBP4; [3]) | ΔS (rAtACBP5; [2]) | n (rAtACBP5; [2]) | ΔH (rAtACBP5; [3]) | ΔG (rAtACBP5; [3]) | other results
6 | CC/C=C\C/C=C\C/C=C\CCCCCCCC(=O)SCCNC(=O)CCNC(=O)[C@H](O)C(C)(C)COP(=O)(O)OP(=O)(O)OC[C@H]1O[C@@H](n2cnc3c(N)ncnc32)[C@H](O)[C@@H]1OP(=O)(O)O [18:3, linolenoyl-CoA] | 84.1 ± 2.9 nM | 189 ± 0.5 µM | 92.4 ± 10.7 µM | -7.7 cal/(mol·K) | 1.1 | -12.1 ± 1.3 kcal/mol | −9.7±0.1 | -300 cal/(mol·K) | 1 | -96.2 ± 5.3 kcal/mol | −5.1±0.0 | -7.4 cal/(mol·K) | 1.2 ± 0.1 | -7.8 ± 1.3 kcal/mol | −5.6±0.1 | 
7 | CCCCCCCCCCCCCCCC(=O)SCCNC(=O)CCNC(=O)[C@H](O)C(C)(C)COP(=O)(O)OP(=O)(O)OC[C@H]1O[C@@H](n2cnc3c(N)ncnc32)[C@H](O)[C@@H]1OP(=O)(O)O [16:0, palmitoyl-CoA] | 35.9 ± 8.4 nM | 23.5 ± 27.1 µM | 35.7 ± 1 µM | -11.5 cal/(mol·K) | 1 ± 0.1 | -13.7 ± 2.4 kcal/mol | −10.2±0.0 | -236 cal/(mol·K) | 1 | -77.4 ± 2.5 kcal/mol | −6.1±0.2 | -16.7 cal/(mol·K) | 0.9 | -11.2 ± 0.5 kcal/mol | −6.2±0.0 | weaker binding than armadillo ACBP (rAtACBP4; rAtACBP4 versus armadillo ACBP): 1000 fold; weaker binding than armadillo ACBP (rAtACBP5; rAtACBP5 versus armadillo ACBP): 1000 fold; Kd (10-kDa bovine ACBP): 4.5 pM; Kd (yeast ACBP): 5.5 nM
